This note sets out measurements from the supplement of paper PMC10307832.

One test deals with HARA. The test can be described thus: relative viability (nuclei count vs DMSO), 5 days (fraction); higher = more cells survive. Conditions: first compound 0.2 µM. Put shortly: (§1)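 Medians of duplicate plates are given as relative viability. That measure is the nuclei count in treated wells divided by the count in vehicle wells. Counts were taken on 4× images of lung cancer cell lines in 1536-well plates, 5 days after pin-tool dosing the day after seeding with one drug alone or a fixed anchor-drug dose plus five library-drug doses (not always all listed) in √10 steps.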
As to `COCC1(CO)C(=O)C2CCN1CC2` (stereo unspecified) [PRIMA-1MET] + COc1cccc2cc(-c3nc([C@H]4CC[C@H](C(=O)O)CC4)n4ncnc(N)c34)[nH]c12 [OSI-027] (partner 0.5 µM), the relative viability was 0.463.

Staying with this test, now noted: first compound 0.6325 µM.
On to `COCC1(CO)C(=O)C2CCN1CC2` (stereo unspecified) [PRIMA-1MET] + CS(=O)(=O)CCNCc1ccc(-c2ccc3ncnc(Nc4ccc(OCc5cccc(F)c5)c(Cl)c4)c3c2)o1 [Lapatinib] (partner 2 µM), for which the relative viability was found to be 0.649.
Compound `COCC1(CO)C(=O)C2CCN1CC2` (stereo unspecified) [PRIMA-1MET] + O=C(CCCCCCC(=O)Nc1ccccc1)NO [Vorinostat] (partner 1 µM) displayed a relative viability of 0.266.
The same measure, in the same setting: the value for `COCC1(CO)C(=O)C2CCN1CC2` (stereo unspecified) [PRIMA-1MET] + Cc1cc(Nc2cc(N3CCN(C)CC3)nc(Sc3ccc(NC(=O)C4CC4)cc3)n2)n[nH]1 [Tozasertib] (partner 0.1 µM) was 0.0972.
On the same count and under the same terms, the result for `COCC1(CO)C(=O)C2CCN1CC2` (stereo unspecified) [PRIMA-1MET] + COc1cccc2cc(-c3nc([C@H]4CC[C@H](C(=O)O)CC4)n4ncnc(N)c34)[nH]c12 [OSI-027] (partner 0.5 µM) reads 0.48.

Still in this test, the particulars now being: first compound 6.325 µM.
The compound `COCC1(CO)C(=O)C2CCN1CC2` (stereo unspecified) [PRIMA-1MET] + CS(=O)(=O)CCNCc1ccc(-c2ccc3ncnc(Nc4ccc(OCc5cccc(F)c5)c(Cl)c4)c3c2)o1 [Lapatinib] (partner 2 µM) returned a relative viability of 0.804.
`COCC1(CO)C(=O)C2CCN1CC2` (stereo unspecified) [PRIMA-1MET] + O=C(CCCCCCC(=O)Nc1ccccc1)NO [Vorinostat] (partner 1 µM): the relative viability is 0.587.
In turn, `COCC1(CO)C(=O)C2CCN1CC2` (stereo unspecified) [PRIMA-1MET] + Cc1cc(Nc2cc(N3CCN(C)CC3)nc(Sc3ccc(NC(=O)C4CC4)cc3)n2)n[nH]1 [Tozasertib] (partner 0.1 µM) came in with a relative viability of 0.112.
Take `COCC1(CO)C(=O)C2CCN1CC2` (stereo unspecified) [PRIMA-1MET] + COc1cccc2cc(-c3nc([C@H]4CC[C@H](C(=O)O)CC4)n4ncnc(N)c34)[nH]c12 [OSI-027] (partner 0.5 µM): the relative viability was 0.59.

The same test, now with this note: first compound 20 µM.
`COCC1(CO)C(=O)C2CCN1CC2` (stereo unspecified) [PRIMA-1MET] + CS(=O)(=O)CCNCc1ccc(-c2ccc3ncnc(Nc4ccc(OCc5cccc(F)c5)c(Cl)c4)c3c2)o1 [Lapatinib] (partner 2 µM) gave a relative viability of 0.706.
Still for that read-out and setting: the result for `COCC1(CO)C(=O)C2CCN1CC2` (stereo unspecified) [PRIMA-1MET] + O=C(CCCCCCC(=O)Nc1ccccc1)NO [Vorinostat] (partner 1 µM) reads 0.499; that for `COCC1(CO)C(=O)C2CCN1CC2` (stereo unspecified) [PRIMA-1MET] + Cc1cc(Nc2cc(N3CCN(C)CC3)nc(Sc3ccc(NC(=O)C4CC4)cc3)n2)n[nH]1 [Tozasertib] (partner 0.1 µM), 0.118.
The same measure, in the same setting: the value for `COCC1(CO)C(=O)C2CCN1CC2` (stereo unspecified) [PRIMA-1MET] + COc1cccc2cc(-c3nc([C@H]4CC[C@H](C(=O)O)CC4)n4ncnc(N)c34)[nH]c12 [OSI-027] (partner 0.5 µM) was 0.417.

In the next test the test system is HCC-44. Described as above. Conditions: first compound 0.2 µM. An outline of the steps:
as §1
In turn, `COCC1(CO)C(=O)C2CCN1CC2` (stereo unspecified) [PRIMA-1MET] + CS(=O)(=O)CCNCc1ccc(-c2ccc3ncnc(Nc4ccc(OCc5cccc(F)c5)c(Cl)c4)c3c2)o1 [Lapatinib] (partner 2 µM) came in with a relative viability of 1.02.
Compound `COCC1(CO)C(=O)C2CCN1CC2` (stereo unspecified) [PRIMA-1MET] + O=C(CCCCCCC(=O)Nc1ccccc1)NO [Vorinostat] (partner 1 µM) had a relative viability of 1.08.
On the same count and under the same terms, the value for `COCC1(CO)C(=O)C2CCN1CC2` (stereo unspecified) [PRIMA-1MET] + Cc1cc(Nc2cc(N3CCN(C)CC3)nc(Sc3ccc(NC(=O)C4CC4)cc3)n2)n[nH]1 [Tozasertib] (partner 0.1 µM) was 1.18.
Regarding `COCC1(CO)C(=O)C2CCN1CC2` (stereo unspecified) [PRIMA-1MET] + COc1cccc2cc(-c3nc([C@H]4CC[C@H](C(=O)O)CC4)n4ncnc(N)c34)[nH]c12 [OSI-027] (partner 0.5 µM), the relative viability was determined as 0.584.

The same test, now with this note: first compound 0.6325 µM.
`COCC1(CO)C(=O)C2CCN1CC2` (stereo unspecified) [PRIMA-1MET] + CS(=O)(=O)CCNCc1ccc(-c2ccc3ncnc(Nc4ccc(OCc5cccc(F)c5)c(Cl)c4)c3c2)o1 [Lapatinib] (partner 2 µM) gave a relative viability of 0.775.
On the same count and under the same terms, the value for `COCC1(CO)C(=O)C2CCN1CC2` (stereo unspecified) [PRIMA-1MET] + O=C(CCCCCCC(=O)Nc1ccccc1)NO [Vorinostat] (partner 1 µM) was 1.03; that for `COCC1(CO)C(=O)C2CCN1CC2` (stereo unspecified) [PRIMA-1MET] + Cc1cc(Nc2cc(N3CCN(C)CC3)nc(Sc3ccc(NC(=O)C4CC4)cc3)n2)n[nH]1 [Tozasertib] (partner 0.1 µM) was 0.958; that for `COCC1(CO)C(=O)C2CCN1CC2` (stereo unspecified) [PRIMA-1MET] + COc1cccc2cc(-c3nc([C@H]4CC[C@H](C(=O)O)CC4)n4ncnc(N)c34)[nH]c12 [OSI-027] (partner 0.5 µM) was 0.472.

Staying with this test, now noted: first compound 2 µM.
Take `COCC1(CO)C(=O)C2CCN1CC2` (stereo unspecified) [PRIMA-1MET] + CS(=O)(=O)CCNCc1ccc(-c2ccc3ncnc(Nc4ccc(OCc5cccc(F)c5)c(Cl)c4)c3c2)o1 [Lapatinib] (partner 2 µM): the relative viability worked out at 0.99.
Regarding `COCC1(CO)C(=O)C2CCN1CC2` (stereo unspecified) [PRIMA-1MET] + O=C(CCCCCCC(=O)Nc1ccccc1)NO [Vorinostat] (partner 1 µM), the relative viability came out at 1.18.
Still for that read-out and setting: the value for `COCC1(CO)C(=O)C2CCN1CC2` (stereo unspecified) [PRIMA-1MET] + Cc1cc(Nc2cc(N3CCN(C)CC3)nc(Sc3ccc(NC(=O)C4CC4)cc3)n2)n[nH]1 [Tozasertib] (partner 0.1 µM) was 0.811; that for `COCC1(CO)C(=O)C2CCN1CC2` (stereo unspecified) [PRIMA-1MET] + COc1cccc2cc(-c3nc([C@H]4CC[C@H](C(=O)O)CC4)n4ncnc(N)c34)[nH]c12 [OSI-027] (partner 0.5 µM) was 0.383.

Still in this test, the particulars now being: first compound 6.325 µM.
With `COCC1(CO)C(=O)C2CCN1CC2` (stereo unspecified) [PRIMA-1MET] + CS(=O)(=O)CCNCc1ccc(-c2ccc3ncnc(Nc4ccc(OCc5cccc(F)c5)c(Cl)c4)c3c2)o1 [Lapatinib] (partner 2 µM), the relative viability came to 1.01.
